{
  "source": "patent US4435404A",
  "about": "“Carbostyril derivatives” (priority 1980, dated 1984)",
  "key": {"[1]": {"system": "Gold blatt type renoprival hypertension rats (RHR)", "test": "Hypotensive effect, Tail-cuff method, RHR", "format": "in vivo, rat", "settings": "30 mg/kg oral, mean value ± standard deviation", "experimental": "(§1) Hypotensive effect of the compounds were measured by determining the maximum blood pressure of the test animals according to a procedure of Tail-cuff method.\n(§2) Test animals used were the following two types.\n(1) Gold blatt type renoprival hypertension rats (RHR)\nWistar strain male rats having, 160-180 g of body weight, were anesthetized with ether and the left-side renal artery was pluged with a silver clip having 0.2 mm inside diameter, while the right-side renal artery was kept as it was without operation. Four (4) weeks after the operation, rats having the maximum blood pressure over 150 mmHg were selected and used as test animals which were abstained from food for overnight.\n(§3) Each of compounds to be tested were administered orally and the blood pressure was measured before the administration and 1, 2, 4, 6 and 8 hours after the administration. The blood pressure was measured by using Recorder (Rectihoriz type 8S, San-ei Instrument) and Electrosthygmomanometer PE-300 (Macro Bio-systems, Houston, Tex.)."}, "[2]": {"system": "ADP-induced aggregation in rabbit platelet", "test": "Inhibition effect on ADP-induced aggregation in rabbit platelet", "format": "cell-based", "settings": "Oryctolagus cuniculus, Platelet", "procedure,_shortened": "(§4)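 Aggregation was followed by transmittance at 37 °C with 1,100 rpm stirring, using rabbit PRP preincubated 1 min with test compound. Inhibition was expressed relative to controls, with aspirin as comparator.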"}, "[3]": {"system": "Deoxycorticosteroneacetate (DOCA)/saline hypertension rats (DHR)", "test": "Hypotensive effect, Tail-cuff method, DHR", "format": "in vivo, rat", "settings": "30 mg/kg oral, mean value ± standard deviation", "experimental": "as §1, §2\n(2) Deoxycorticosteroneacetate (DOCA)/saline hypertension rats (DHR)\nWistar strain male rats having 150-170 g of body weight, were anesthetized with ether and the left-side kidney was enucleated. One (1) week after the operation, 10 mg/kg of DOCA was injected subcutaneously once a week and 1% NaCl aqueous solution was given as drinking water. Five (5) weeks after the operation, rats having the maximum blood pressure over 150 mmHg were selected and used as test animals which were abstained from food for overnight.\nas §3"}, "Wistar strain male rats": {"system": "Wistar strain male rats", "test": "Test of increasing effect of heart rate", "format": "in vivo, rat", "settings": "30 mg/kg oral, 60 minutes after the administration", "experimental": "Wistar strain male rats, having 180-230 g of body weight, were abstained from food for 24 hours, the electrocardiograms introduced from the second induction period were recorded on oscillograph. The heart rate was calculated from the electrocardiograms by observing them for 10 seconds several times. […] 60 Minutes after the administration, the heart rate was measured and increasing effect of the heart rate was calculated. Generally, an average heart rate of an usual Wistar strain male rat is about 320 beat/minute."}, "[4]": {"system": "collagen-induced aggregation in rabbit platelet", "test": "Inhibition effect on collagen-induced aggregation in rabbit platelet", "format": "cell-based", "settings": "Oryctolagus cuniculus, Platelet, read-out: Inhibition effect on collagen-induced aggregation", "procedure,_shortened": "as §4"}, "[5]": {"system": "arterial papillary muscle", "test": "Positive inotropic effect, blood-perfused arterial papillary muscle", "parameters": "species or system dog", "settings": "Canis lupus familiaris, into septal artery, read-out: Increasing of inotropic", "experimental": "Positive inotropic effects of the novel carbostyril derivatives of the present invention were tested according to a method described by M. Endoh and K. Hashimoto, in \"American Journal of Physiology\", Vol. 218, No. 5, May, 1970, pages 1459-1463 as follows:\nAdult bastard dogs of both sexes, weighing 8-12 kg, were anesthetized with pentobarbital-Na at a rate of 30 mg/kg by intraveneous administration. After another intraveneous administration of sodium heparin, 1,000 μ/kg, the test dog was sacrificed by blood letting. The heart of the dog was excised and immediately plunged into Locke's solution, then the arterial papillary muscle was excised out with interventicular septum. The septal artery was carefully isolated and cannulated with a polyethylene cannula and was ligated with thread. Septal arteries those of connected to other than the arterial papillary muscle were ligated with thread. Next, the donor adult bastard dogs, weighing 18-27 kg, were anesthetized with pentabarbital-Na (30 mg/kg, intraveneous injection), and further treated with intravenous administration of sodium heparin (1,000 μ/kg). The arterial papillary muscle was perfused through the septal artery being cannulated with the polyethylene cannula with the blood conducted from the carotid artery of the donor dog by aid of Peristaric pump. The perfusion pressure was maintained at 100 mmHg constantly. Then the muscle was electrically stimulated by an electronic stimulator through bipolar electrodes in contact with the interventicular septum. The strength of stimulation was 2 X (the minimum value for appearing the action), frequency 2 Hz, pulse duration 2 msec.\nThe isometric contraction generated was measured through a force-displacement transducer. The amount of blood flow in the coronary arteries was measured by determining the amount of the blood flow conducted to the septal artery by electromagnetic flow meter. All the data were recorded on an ink-writing recorder.\nA solution containing a compound to be tested was injected into the septal artery through the rubber tube connected close to the shunk of the polyethylene cannula, in an amount of 10-30 μl.\nThe results obtained is shown in Table 4, in which the increasement (%) of contraction is indicated as the ratio of the contractions before and after the administration (injection) of the solution containing the test compound."}},
  "data": [
    {"smiles": "O=C(CCCOc1ccc2[nH]c(=O)ccc2c1)N(CCO)C1CCCCC1", "note": "[No. 1, 6-{3-[N-(2-hydroxyethyl)-N-cyclohexylaminocarbonyl]propoxy}carbostyril]", "values": [
      {"measurement": "Maximum blood pressure after the administration (difference)", "setting": "[1]; 1 hour", "value": "-27.0 ± 14.0", "unit": "mmHg"},
      {"measurement": "Maximum blood pressure after the administration (difference)", "setting": "[1]; 2 hours", "value": "-28.6 ± 16.4", "unit": "mmHg"},
      {"measurement": "Maximum blood pressure after the administration (difference)", "setting": "[1]; 4 hours", "value": "-32.4 ± 15.2", "unit": "mmHg"},
      {"measurement": "Maximum blood pressure after the administration (difference)", "setting": "[1]; 6 hours", "value": "-35.0 ± 11.5", "unit": "mmHg"},
      {"measurement": "Maximum blood pressure after the administration (difference)", "setting": "[1]; 8 hours", "value": "-41.3 ± 17.2", "unit": "mmHg"},
      {"measurement": "inhibition at 100 µM", "setting": "[2]; concentration of the test compound solution 10^-4 mole", "value": 100, "unit": "%"},
      {"measurement": "inhibition at 10 µM", "setting": "[2]; concentration of the test compound solution 10^-5 mole, read-out: Inhibition effect on ADP-induced aggregation", "value": 86, "unit": "%"},
      {"measurement": "inhibition at 1 µM", "setting": "[2]; concentration of the test compound solution 10^-6 mole, read-out: Inhibition effect on ADP-induced aggregation", "value": 45, "unit": "%"},
      {"measurement": "Maximum blood pressure after the administration (difference)", "setting": "[3]; 1 hour", "value": "-46.0 ± 11.7", "unit": "mmHg"},
      {"measurement": "Maximum blood pressure after the administration (difference)", "setting": "[3]; 2 hours", "value": "-42.6 ± 6.5", "unit": "mmHg"},
      {"measurement": "Maximum blood pressure after the administration (difference)", "setting": "[3]; 4 hours", "value": "-37.6 ± 5.2", "unit": "mmHg"},
      {"measurement": "Maximum blood pressure after the administration (difference)", "setting": "[3]; 6 hours", "value": "-34.4 ± 10.5", "unit": "mmHg"},
      {"measurement": "Maximum blood pressure after the administration (difference)", "setting": "[3]; 8 hours", "value": "-29.0 ± 10.5", "unit": "mmHg"},
      {"measurement": "Increasing effect of heart rate", "setting": "Wistar strain male rats", "value": 42, "unit": "Beat/min."},
      {"measurement": "inhibition at 10 µM", "setting": "[4]; concentration of the test compound solution 10^-5 mole", "value": 100, "unit": "%"},
      {"measurement": "inhibition at 1 µM", "setting": "[4]; concentration of the test compound solution 10^-6 mole", "value": 100, "unit": "%"},
      {"measurement": "inhibition at 0.1 µM", "setting": "[4]; concentration of the test compound solution 10^-7 mole", "value": 60.1, "unit": "%"},
      {"measurement": "activation at 3 nmol", "setting": "[5]; dosage 3 n mol", "value": 8.2, "unit": "%"},
      {"measurement": "activation at 30 nmol", "setting": "[5]; dosage 30 n mol", "value": 54.5, "unit": "%"}
    ]}
  ]
}
